The values that follow come from US12202844B2, “MAP4K1 inhibitors” (Blueprint Medicines Corporation, priority 2021, dated 2025).

In general, EC50 refers to the midpoint of the concentration-response curve. In general, IC50 refers to the concentration that gives 50% inhibition.

Where two headings read alike, the source gives them in different places.

In experiment [1] the test system is Primary T Cell (expanded CD3+ T cells). Description: T cell enhancement of cytokines: IL2 measurement (HTRF) in stimulated expanded CD3+ T cells. The experiment is classed as cell-based, human. Conditions: plate-bound anti-CD3 and soluble anti-CD28, 24 h, IL2 by HTRF, read-out: IL-2 Primary T Cell EC50. Here is the method: T cells are isolated from whole blood of healthy donors by immunomagnetic negative selection following manufacture's protocol (StemCell Technologies, human T cell isolation kit). Purity of isolated cells is assessed by flow cytometry and yields 95-98% CD3^+ T cells. For expansion of T cells, 1×10^6 cells/well are plated in serum free cell expansion media (ThermoFisher) containing 30 U of recombinant human IL2 (R&D) and stimulated with 25 ul of CD3/CD28 beads (Invitrogen) in 24 well plates for 3-4 days. T cells are then expanded in 175 cm flasks and maintained at a cell density of 1 to 2.5×10^6 cells/ml days by addition of ⅔ of fresh media every 2-3 days. After 10-14 days, cells are frozen in BamBanker freezing media (Thermo) and stored in liquid nitrogen.
For IL2 measurement, expanded CD3^+ T cells are dispensed at 100K cells/well (cultured in X-VIVO 10 Serum-free media) and are stimulated with plate-bound anti-CD3 and soluble anti-CD28 in the presence of vehicle or compound of the disclosure at various concentrations for 24 h. As outlined in the manufacturer's protocol (Cisbio), 16 μL of conditioned media is transferred to a white 384-well low volume plate. Following a 24 h incubation with the anti-IL2 antibodies, the homogenous time resolved fluorescence (HTRF) is measured.
On the technique in general: TR-FRET usually uses a lanthanide donor and a delayed reading to cut background.

In the next experiment the target is T1, MAP4K1 (HPK1) (Homo sapiens, UniProt Q92918).
T1 construct: purchased Invitrogen
T1 sequence (Q92918 whole entry): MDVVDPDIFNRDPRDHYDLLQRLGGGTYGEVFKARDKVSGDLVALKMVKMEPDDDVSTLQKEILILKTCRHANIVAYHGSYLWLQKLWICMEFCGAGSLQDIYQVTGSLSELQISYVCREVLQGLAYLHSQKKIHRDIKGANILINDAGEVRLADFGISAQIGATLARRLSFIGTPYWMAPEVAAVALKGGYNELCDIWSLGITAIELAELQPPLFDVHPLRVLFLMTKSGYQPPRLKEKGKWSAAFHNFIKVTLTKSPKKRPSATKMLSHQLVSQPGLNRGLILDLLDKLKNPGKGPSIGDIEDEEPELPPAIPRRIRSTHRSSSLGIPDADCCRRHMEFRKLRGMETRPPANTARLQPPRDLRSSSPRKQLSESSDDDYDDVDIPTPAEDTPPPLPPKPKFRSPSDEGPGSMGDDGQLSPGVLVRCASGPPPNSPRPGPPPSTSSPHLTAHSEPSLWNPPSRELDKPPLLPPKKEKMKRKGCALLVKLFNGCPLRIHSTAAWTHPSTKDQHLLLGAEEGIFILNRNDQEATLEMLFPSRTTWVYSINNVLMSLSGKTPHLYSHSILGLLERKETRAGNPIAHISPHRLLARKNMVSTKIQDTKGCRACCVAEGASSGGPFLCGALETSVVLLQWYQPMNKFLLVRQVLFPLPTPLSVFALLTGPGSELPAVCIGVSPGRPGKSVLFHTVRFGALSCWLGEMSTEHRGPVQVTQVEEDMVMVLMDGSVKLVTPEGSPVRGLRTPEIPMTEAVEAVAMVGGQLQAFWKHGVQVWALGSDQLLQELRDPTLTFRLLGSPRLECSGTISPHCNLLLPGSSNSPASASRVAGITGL
In words: Inhibition of MAP4K1 biochemical enzymatic activity (EZReader 2 electrophoretic mobility shift). Conditions: HPK1 (Invitrogen), S6K2tide 1.5 μM, 120 min; ATP 26 μM or 1000 μM (not given). In a few lines:
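Untreated enzyme (0.1-15 nM) was incubated with 1.5 μM fluorescent peptide and 20-1000 μM ATP (apparent Km or 1 mM) in HEPES pH 7.5, MgCl2, DTT, Brij 35 at 25° C. for 60-180 min, with 1% DMSO and a 10-point 4-fold compound series. After an EDTA stop, product/substrate peptide peak ratio was read by mobility shift.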
(A gel shift assay detects complexes by their altered migration in electrophoresis.)

Turning to `C[C@H](CCS(C)(=O)=O)Oc1ncc(C(C)(C)N)c2cc(Nc3ccc4c(n3)C3(CC3)[C@@H](C)OC4=O)ncc12` (single isomer, unassigned) [Compound 29], the concentration for a half-maximal effect (EC50) in experiment [1] (Homo sapiens, T-cell, 24 h) was 24 nM. The IC50 at MAP4K1 (HPK1) was 0.29 nM.

Consider `CC[C@@](C)(N)c1cnc(O[C@H](C)C[C@@H](C)S(C)(=O)=O)c2cnc(Nc3ccc4c(n3)[C@H](C)COC4=O)cc12` (single isomer, unassigned) [Compound 47], for which, in experiment [1] (Homo sapiens, T-cell, 24 h), the EC50 turned out to be 53 nM. Also, the IC50 at MAP4K1 (HPK1) was determined as 0.38 nM.

As to `CC[C@@](C)(N)c1cnc(O[C@H](C)C[C@@H](C)S(C)(=O)=O)c2cnc(Nc3ccc4c(n3)[C@H](C)COC4=O)cc12` (single isomer, unassigned) [Compound 48], the EC50 in experiment [1] came out at 55 nM. Also, the 50% inhibitory concentration (IC50) at MAP4K1 (HPK1) is 0.59 nM.

With `C[C@H](CCS(C)(=O)=O)Oc1ncc(C(C)(C)N)c2cc(Nc3ccc4c(n3)[C@@H](C)C(C)(C)OC4=O)ncc12` (single isomer, unassigned) [Compound 55], the EC50 in experiment [1] (Homo sapiens, T-cell, 24 h) was found to be 34 nM. In addition, the IC50 at MAP4K1 (HPK1) turned out to be 0.36 nM.

For the compound `C[C@@H]1c2nc(Nc3cc4c(C(N)C5CC5)cnc(O[C@H]5C[C@@H](S(C)(=O)=O)C5)c4cn3)ccc2C(=O)OC1(C)C` (single isomer, unassigned) [Compound 62, (R)-2-((5-((S or R)-Amino(cyclopropyl)methyl)-8-(cis-3-(methylsulfonyl)cyclobutoxy)-2,7-naphthyridin-3-yl)amino)-7,7,8-trimethyl-7,8-dihydro-5H-pyrano[4,3-b]pyridin-5-one], in experiment [1] (Homo sapiens, T-cell, 24 h), the EC50 was determined as 76 nM. In addition, the IC50 at MAP4K1 (HPK1) was 0.33 nM.

Regarding `C[C@H](C[C@@H](C)S(C)(=O)=O)Oc1ncc(C(C)(C)N)c2cc(Nc3ccc4c(n3)C3(CC3)[C@@H](C)OC4=O)ncc12` (single isomer, unassigned) [Compound 65], in experiment [1] (Homo sapiens, T-cell, 24 h), the EC50 is 11 nM. Also, the concentration for half-maximal inhibition (IC50) on MAP4K1 (HPK1) turned out to be 0.2 nM.

As to `CC[C@@](C)(N)c1cnc(O[C@H](C)CCS(C)(=O)=O)c2cnc(Nc3ccc4c(n3)C3(CC3)[C@@H](C)OC4=O)cc12` (single isomer, unassigned) [Compound 66], the EC50 in experiment [1] (Homo sapiens, T-cell, 24 h) amounted to 21 nM. For the same compound, the IC50 on MAP4K1 (HPK1) amounted to 0.24 nM.

With `C[C@H]1[C@H](Oc2ncc(C(C)(C)N)c3cc(Nc4ccc5c(n4)[C@@H](C)C(C)(C)OC5=O)ncc23)C[C@@H]1S(C)(=O)=O` (single isomer, unassigned) [Compound 69], the EC50 in experiment [1] (Homo sapiens, T-cell, 24 h) worked out at 15 nM. Moreover, at MAP4K1 (HPK1), the IC50 turned out to be 0.1 nM.

In the case of `CC[C@@H](N)c1cnc(O[C@H]2C[C@@H](S(=O)(=O)CC)C2)c2cnc(Nc3ccc4c(n3)[C@@H](C)C(C)(C)OC4=O)cc12` (single isomer, unassigned) [Compound 74], the EC50 in experiment [1] (Homo sapiens, T-cell, 24 h) was found to be 51 nM. Further, the IC50 on MAP4K1 (HPK1) is 0.33 nM.

Regarding `C[C@@H]1c2nc(Nc3cc4c(C(C)(C)N)cnc(O[C@H]5C[C@H](CS(C)(=O)=O)C5)c4cn3)ccc2C(=O)OC1(C)C` (single isomer, unassigned) [Compound 75], in experiment [1] (Homo sapiens, T-cell, 24 h), the EC50 was 28 nM. Moreover, the 50% inhibitory concentration (IC50) on MAP4K1 (HPK1) was determined as 0.07 nM.

With `C[C@@H]1c2nc(Nc3cc4c(C(C)(C)N)cnc(O[C@H]5C[C@@H](CS(C)(=O)=O)C5)c4cn3)ccc2C(=O)OC1(C)C` (single isomer, unassigned) [Compound 76], the EC50 in experiment [1] (Homo sapiens, T-cell, 24 h) is 25 nM. At MAP4K1 (HPK1), the IC50 was determined as 0.07 nM.

In the case of `CCC[C@@H](N)c1cnc(O[C@H]2C[C@@H](S(C)(=O)=O)C2)c2cnc(Nc3ccc4c(n3)[C@@H](C)C(C)(C)OC4=O)cc12` (single isomer, unassigned) [Compound 79], the EC50 in experiment [1] (Homo sapiens, T-cell, 24 h) is 94 nM. Besides, the IC50 at MAP4K1 (HPK1) was 0.34 nM.

Consider `CCC[C@@](C)(N)c1cnc(O[C@H](C)CCS(C)(=O)=O)c2cnc(Nc3ccc4c(n3)CC(C)(C)OC4=O)cc12` (single isomer, unassigned) [Compound 85], for which the EC50 in experiment [1] (Homo sapiens, T-cell, 24 h) worked out at 85 nM. Besides, the IC50 at MAP4K1 (HPK1) stood at 0.37 nM.

Consider `CCC[C@@](C)(N)c1cnc(O[C@H](C)CCS(C)(=O)=O)c2cnc(Nc3ccc4c(n3)[C@@H](C)[C@H](C)OC4=O)cc12` (single isomer, unassigned) [Compound 86], for which the EC50 in experiment [1] (Homo sapiens, T-cell, 24 h) was 26 nM. Moreover, the half-inhibitory concentration (IC50) on MAP4K1 (HPK1) was determined as 0.2 nM.
